Measurements taken from patent publication US20200308620A1, “PREDICTING TUMOR SPECIFICITY OF TARGETED THERAPEUTICS USING ATOMIC FORCE MICROSCOPY (AFM)” (Children's Medical Center Corporation, priority 2017, published 2020).
Converted amounts (≈) assume the structure as drawn.

How the values were obtained:
[1] = test system: ICAM1 expression on MDA-MB-231 cell surface; experiment: Flow cytometric analysis of ICAM1 surface expression pre- and post-MCD treatment; format: cell-based, human; settings: MDA-MB-231, pre- and post-MCD treatment
Source text: In addition to the overexpression level, the organization of antigens on the cell membrane is another key factor driving differences in antibody-antigen binding behavior^11. AFM-detected adhesive events were also used to spatially map the binding forces on MDA-MB-231 (FIG. 2E) and MCF10A (FIG. 2F) cell surface. […] These “hot-spots” are predicted to be the primary binding sites for ICAM1 antibody-directed nanomedicine due to the high binding forces. ICAM1 molecules may be enriched in membrane lipid rafts of MDA-MB-231 cells to facilitate functional signaling^22. […] In order to determine whether ICAM1 adhesion forces are dependent on the organization of ICAM1 molecules in lipid rafts on the cell membrane, both MDA-MB-231 and MCF10A cells were treated with methyl-beta-cyclodextrin (MCD), a cholesterol-depleting drug that disrupts lipid rafts, and then the average binding force was re-measured. […]
10^6 cells were collected and rinsed twice through suspension-spin cycles. […] Cells were rinsed with 1% BSA in PBS three times, resuspended in PBS, and evaluated by a BD FACSCalibur flow cytometer (BD Biosciences). Quantification of cell surface antigen was determined with reference to Quantum Simply Cellular microbeads, using the protocol provided by the manufacturer.

[2] = test system: MDA-MB-231 cells; experiment: In vitro cytotoxicity (cell viability) assay; format: cell-based, human; settings: MDA-MB-231, Dox concentration, treated 4 hours, grown 48 hours
Procedure: In vitro cytotoxicity of ICAM-Dox-LPs on TNBC cells was evaluated using a cell viability assay. Five thousand cells (MDA-MB-231, MDA-MB-436, and MDA-MB-157) were seeded in each well of a 96 well plate and incubated for 24 hours. Cells were treated with (1) ICAM-LP without Dox; (2) Free Dox; (3) non-specific IgG-Dox-LPs and (4) ICAM-Dox-LPs for 4 hours. Cells were rinsed twice with PBS and grown for 48 hours. Cell viability was determined by a Dojindo cell counting kit using the manufacturer's protocol (Rockville, Md.).

[3] = test system: patient-derived NHL B cells; settings: cited from earlier work
[4] = test system: normal red blood cells; settings: Li et al.; cited from earlier work

In the case of methyl-beta-cyclodextrin [MCD], the “effect on average ICAM1 expression on cell surface” value [1] is reported as “did not affect”.

With `COc1cccc2c1C(=O)c1c(O)c3c(c(O)c1C2=O)C[C@@](O)(C(=O)CO)C[C@@H]3O[C@H]1C[C@H](N)[C@H](O)[C@H](C)O1` [free Dox, doxorubicin] the “IC50 (cytotoxicity)” value [2] was 7.4 µg/mL (≈ 13.6 µM).

In the case of “Rituximab: FDA-approved CD20 antibody for Non-Hodgkin's Lymphoma treatment”, the “binding force difference (NHL B cells minus normal red blood cells)” value ([3]; NHL B cells minus normal red blood cells) is listed as 33 pN, the binding force ([3]; patient-derived NHL B cells, Li et al.) is listed as 54±34 pN and the binding force [4] is listed as 21±19 pN.
